Square brackets hold non-standard residues; d marks the D form. Peptide text beside a SMILES is read from it. * marks the point of attachment. Tyr(3-Cl) = N[C@@H](Cc1ccc(O)c(Cl)c1)C(=O)O; Benzoyl(3,5-Cl2) = O=C(c1cc(Cl)cc(Cl)c1)*; Lys(Et2) = CCN(CC)CCCC[C@H](N)C(=O)O; Gly(cPent) = N[C@H](C(=O)O)C1CCCC1; NH(propargyl) = C#CCN*
Tests used:
Format in all cases: cell-based
[1] = test system: RWPE-1 cells, HEK293T cells; assay: Viability of non-transformed / control cells
[2] = target: T1, CBX2 binding to chromatin (Homo sapiens, UniProt Q14781); assay: ChIP-qPCR in K562 cells
T1 construct: endogenous in cells; host or cells: HEK293T (A21); K562 (A22)
T1 sequence (Q14781 whole entry): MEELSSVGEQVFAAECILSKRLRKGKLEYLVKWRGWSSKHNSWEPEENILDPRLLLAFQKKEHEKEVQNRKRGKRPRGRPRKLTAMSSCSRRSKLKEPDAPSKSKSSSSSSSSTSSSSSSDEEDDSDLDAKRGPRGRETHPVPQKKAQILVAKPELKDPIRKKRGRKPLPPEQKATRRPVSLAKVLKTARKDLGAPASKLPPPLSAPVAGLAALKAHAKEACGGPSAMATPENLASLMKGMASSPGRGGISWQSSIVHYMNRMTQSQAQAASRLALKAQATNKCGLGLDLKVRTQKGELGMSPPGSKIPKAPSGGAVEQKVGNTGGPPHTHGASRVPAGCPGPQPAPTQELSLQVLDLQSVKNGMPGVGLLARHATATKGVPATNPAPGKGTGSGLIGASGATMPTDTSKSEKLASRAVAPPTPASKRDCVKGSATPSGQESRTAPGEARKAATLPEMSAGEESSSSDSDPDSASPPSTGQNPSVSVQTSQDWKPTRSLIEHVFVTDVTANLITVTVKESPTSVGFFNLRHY
Experimental: FIGS. 11A-11E: Cellular Activity of CBX2 ChD Ligand. FIG. 11A) Relative cytosolic access of SW2_152F conjugated to a chloroalkane (SW2_152F-CA, SEQ ID NO: 28) was evaluated using chloroalkane penetration assay (CAPA). The half maximal cell penetration value (CP50) of SW2_152F-CA was determined for SW2_152F-CA and CBX8 inhibitor SW2_110A-CA. FIG. 11B) Chemoprecipitations from HEK293T nuclear lysates using biotinylated SW2_152F (SW2_152F-B, SEQ ID NO: 29) were analyzed using immunoblot analysis. FIG. 11C) Analysis and quantification of SW2_152F in abrogating bulk binding of endogenous CBX proteins to chromatin in HEK293T cells by Sequential Salt Extraction. FIG. 11D). Chromatin immunoprecipitation (ChIP) from K562 cells using antibodies against IgG, H3K27me3, CBX2 and CBX8 was followed by quantitative PCR of genomic regions near Tm9SF4 (negative locus), TCF21, Fyn-2, and PAX7. Cells were treated with 10 μM SW2_152F for 4 h prior to harvest. FIG. 11E) Chromatin immunoprecipitation (ChIP) in Hs68 fibroblast cells using antibodies against IgG, CBX7, and CBX8 followed by quantitative PCR of genomic regions at LMNB2 (negative locus), CCND2, and RUNX3. Cells were treated with 100 μM SW2_152F for 4 h prior to harvest. For all qPCR, error bars represent SEM n=3 biological replicates, p-values were calculated using two-tailed Student's t-test, * p<0.05, **=p<0.01, ***=p<0.001, ****=p<0.0001.
ChIP-qPCR. After validating selectivity using lysate and bulk chromatin, we wanted to determine whether the inhibitor can disrupt CBX2 binding to chromatin in live cells. We used chromatin immunoprecipitation (ChIP) followed by quantitative PCR (ChIP-qPCR) of sites with CBX2, CBX8 and H3K27me3 enrichment in K562 ChIP-Seq datasets in ENCODE (M. Azkanaz, et al., Elife 2019). We evaluated effects of compound treatment at both 10 μM and 100 μM SW2_152F. […] In order to evaluate SW2_152F activity against a paralog with no binding to SW2_152F in vitro, CBX7 ChIP-qPCR was performed in Hs68 fibroblast cells, which have no detectable CBX2 expression (H. Pemberton, et al., Genome Biol. 2014).

[3] = target: T2, CBX2 bulk chromatin binding (Homo sapiens, UniProt Q14781); assay: Sequential salt extraction (SSE) in HEK293T cells; settings: 10 μM
T2 construct: endogenous in cells; host or cells: HEK293T (A21); K562 (A22)
T2 sequence (Q14781 whole entry): as above

C#CCNC(=O)[C@H](CO)NC(=O)[C@H](CCCCN(CC)CC)NC(=O)[C@@H](NC(=O)[C@@H](NC(=O)[C@H](Cc1ccc(O)c(Cl)c1)NC(=O)c1cc(Cl)cc(Cl)c1)C1CCCC1)[C@@H](C)CC [SW2_152F] ({Benzoyl(3,5-Cl2)}-[Tyr(3-Cl)][Gly(cPent)]I[Lys(Et2)]S-{NH(propargyl)})
viability of RWPE-1 cells or HEK293T cells [1]: did not affect the viability | CBX2 binding, ChIP-qPCR ([2]; 10 μM, 4 h): significant reduction of CBX2 binding | CBX2 binding, ChIP-qPCR ([2]; 100 μM): significant reduction of both CBX2 and CBX8 binding | CBX2 binding to chromatin, SSE [3]: dramatically abrogated CBX2 binding to chromatin

— patent US20210284691A1, “CBX8 CHROMDOMAIN INHIBITORS AND THE USES THEREOF” (Purdue Research Foundation, priority 2019, published 2021)
